Reference: ChEMBL document CHEMBL3045727, “Synthesis of some new thiazolopyrane and thiazolopyranopyrimidine derivatives bearing a sulfonamide moiety for evaluation as anticancer and radiosensitizing agents” (Med Chem Res, 2012)

Tests used:
HepG2 [1] = experiment: Cytotoxicity against Homo sapiens (human) HepG2 cells after 48 hr by SRB assay; type: functional, cell-based; conditions: HepG2, 48 h
HepG2 [2] = experiment: Cytotoxicity against Homo sapiens (human) HepG2 cells assessed as cell surviving fraction at 100 uM after 48 hr by SRB assay; type: functional
HepG2 [3] = experiment: Cytotoxicity against Homo sapiens (human) HepG2 cells assessed as cell surviving fraction at 50 uM after 48 hr by SRB assay; type: functional
HepG2 [4] = experiment: Cytotoxicity against Homo sapiens (human) HepG2 cells assessed as cell surviving fraction at 25 uM after 48 hr by SRB assay; type: functional
HepG2 [5] = experiment: Cytotoxicity against Homo sapiens (human) HepG2 cells assessed as cell surviving fraction at 10 uM after 48 hr by SRB assay; type: functional
HepG2 [6] = experiment: Cytotoxicity against Homo sapiens (human) HepG2 cells after 48 hr followed by gamma-radiation at dose level of 8 Gy by SRB assay; type: functional, cell-based; conditions: HepG2, 48 h
HepG2 [7] = experiment: Cytotoxicity against Homo sapiens (human) HepG2 cells assessed as cell surviving fraction at 100 uM after 48 hr followed by gamma-radiation at dose level of 8 Gy by SRB assay; type: functional
HepG2 [8] = experiment: Cytotoxicity against Homo sapiens (human) HepG2 cells assessed as cell surviving fraction at 50 uM after 48 hr followed by gamma-radiation at dose level of 8 Gy by SRB assay; type: functional
HepG2 [9] = experiment: Cytotoxicity against Homo sapiens (human) HepG2 cells assessed as cell surviving fraction at 10 uM after 48 hr followed by gamma-radiation at dose level of 8 Gy by SRB assay; type: functional
HepG2 [10] = experiment: Cytotoxicity against Homo sapiens (human) HepG2 cells assessed as cell surviving fraction at 25 uM after 48 hr followed by gamma-radiation at dose level of 8 Gy by SRB assay; type: functional

Nc1nc(=O)[nH]c2c1C(c1ccc([N+](=O)[O-])cc1)c1sc(Nc3ccc(S(N)(=O)=O)cc3)nc1O2 (stereo not drawn)
IC50 (HepG2 [1]): 45 µM
Ratio (HepG2 [2]): 0.262
Ratio (HepG2 [3]): 0.244
Ratio (HepG2 [4]): 0.487
Ratio (HepG2 [5]): 0.779

N#CC1=C(N)Oc2nc(Nc3ccc(S(N)(=O)=O)cc3)sc2C1c1ccccc1Cl (stereo not drawn)
Ratio (HepG2 [2]): 0.655
Ratio (HepG2 [3]): 0.582
Ratio (HepG2 [4]): 0.861
Ratio (HepG2 [5]): 0.909

NS(=O)(=O)c1ccc(NC2=NC(=O)CS2)cc1
IC50 (HepG2 [6]): 30 µM
Ratio (HepG2 [7]): 0.12
Ratio (HepG2 [8]): 0.12
Ratio (HepG2 [9]): 0.53
IC50 (HepG2 [1]): 43 µM
Ratio (HepG2 [2]): 0.231
Ratio (HepG2 [3]): 0.168
Ratio (HepG2 [4]): 0.501
Ratio (HepG2 [5]): 0.848
Ratio (HepG2 [10]): 0.48

COc1ccc(C2C(C#N)=C(N)Oc3nc(Nc4ccc(S(N)(=O)=O)cc4)sc32)cc1OC (stereo not drawn)
Ratio (HepG2 [2]): 0.672
Ratio (HepG2 [3]): 0.64
Ratio (HepG2 [4]): 0.564
Ratio (HepG2 [5]): 0.628

N#CC1=C(N)Oc2nc(Nc3ccc(S(N)(=O)=O)cc3)sc2C1c1cccc(Br)c1 (stereo not drawn)
IC50 (HepG2 [1]): 72 µM
Ratio (HepG2 [2]): 0.509
Ratio (HepG2 [3]): 0.388
Ratio (HepG2 [4]): 0.564
Ratio (HepG2 [5]): 0.846

Nc1ncnc2c1C(c1ccc([N+](=O)[O-])cc1)c1sc(Nc3ccc(S(N)(=O)=O)cc3)nc1O2 (stereo not drawn)
IC50 (HepG2 [1]): 65 µM
Ratio (HepG2 [2]): 0.489
Ratio (HepG2 [3]): 0.287
Ratio (HepG2 [4]): 0.605
Ratio (HepG2 [5]): 0.814

N#CC1=C(N2C(=O)CCC2=O)Oc2nc(Nc3ccc(S(N)(=O)=O)cc3)sc2C1c1ccc([N+](=O)[O-])cc1 (stereo not drawn)
IC50 (HepG2 [1]): 45 µM
Ratio (HepG2 [2]): 0.231
Ratio (HepG2 [3]): 0.342
Ratio (HepG2 [4]): 0.474
Ratio (HepG2 [5]): 0.71

CC(=O)CC(=O)NC1=C(C#N)C(c2ccc([N+](=O)[O-])cc2)c2sc(Nc3ccc(S(N)(=O)=O)cc3)nc2O1 (stereo not drawn)
IC50 (HepG2 [1]): 37 µM
Ratio (HepG2 [2]): 0.299
Ratio (HepG2 [3]): 0.206
Ratio (HepG2 [4]): 0.456
Ratio (HepG2 [5]): 0.546

Cc1nc2c(c(=O)[nH]1)C(c1ccc([N+](=O)[O-])cc1)c1sc(Nc3ccc(S(N)(=O)=O)cc3)nc1O2 (stereo not drawn)
IC50 (HepG2 [1]): 45 µM
Ratio (HepG2 [2]): 0.213
Ratio (HepG2 [3]): 0.301
Ratio (HepG2 [4]): 0.498
Ratio (HepG2 [5]): 0.764

NS(=O)(=O)c1ccc(Nc2nc3c(s2)C(c2ccc([N+](=O)[O-])cc2)c2c(nc[nH]c2=O)O3)cc1 (stereo not drawn)
IC50 (HepG2 [6]): 18 µM
Ratio (HepG2 [7]): 0.14
Ratio (HepG2 [8]): 0.12
Ratio (HepG2 [9]): 0.41
IC50 (HepG2 [1]): 36 µM
Ratio (HepG2 [2]): 0.015
Ratio (HepG2 [3]): 0.168
Ratio (HepG2 [4]): 0.498
Ratio (HepG2 [5]): 0.625
Ratio (HepG2 [10]): 0.22

COc1ccc(C2c3sc(Nc4ccc(S(N)(=O)=O)cc4)nc3Oc3nc[nH]c(=O)c32)cc1OC (stereo not drawn)
IC50 (HepG2 [1]): 32 µM
Ratio (HepG2 [2]): 0.127
Ratio (HepG2 [3]): 0.164
Ratio (HepG2 [4]): 0.446
Ratio (HepG2 [5]): 0.561

COc1cccc2c1C(=O)c1c(O)c3c(c(O)c1C2=O)C[C@@](O)(C(=O)CO)C[C@@H]3O[C@H]1C[C@H](N)[C@H](O)[C@H](C)O1 [DOXORUBICIN]
IC50 (HepG2 [1]): 32 µM
Ratio (HepG2 [2]): 0.125
Ratio (HepG2 [3]): 0.122
Ratio (HepG2 [4]): 0.479
Ratio (HepG2 [5]): 0.537

COc1ccc(C2c3sc(Nc4ccc(S(N)(=O)=O)cc4)nc3Oc3nc(C)[nH]c(=O)c32)cc1OC (stereo not drawn)
IC50 (HepG2 [6]): 8 µM
Ratio (HepG2 [7]): 0.11
Ratio (HepG2 [8]): 0.1
Ratio (HepG2 [9]): 0.31
IC50 (HepG2 [1]): 30 µM
Ratio (HepG2 [2]): 0.115
Ratio (HepG2 [3]): 0.118
Ratio (HepG2 [4]): 0.477
Ratio (HepG2 [5]): 0.529
Ratio (HepG2 [10]): 0.12

N#CC1=C(NC(=O)CCC(=O)O)Oc2nc(Nc3ccc(S(N)(=O)=O)cc3)sc2C1c1ccc([N+](=O)[O-])cc1 (stereo not drawn)
IC50 (HepG2 [6]): 15 µM
Ratio (HepG2 [7]): 0.13
Ratio (HepG2 [8]): 0.11
Ratio (HepG2 [9]): 0.36
IC50 (HepG2 [1]): 32 µM
Ratio (HepG2 [2]): 0.166
Ratio (HepG2 [3]): 0.127
Ratio (HepG2 [4]): 0.382
Ratio (HepG2 [5]): 0.626
Ratio (HepG2 [10]): 0.23

COc1ccc(C2c3sc(Nc4ccc(S(N)(=O)=O)cc4)nc3Oc3[nH]c(=S)n(-c4ccccc4)c(=N)c32)cc1OC (stereo not drawn)
IC50 (HepG2 [6]): 17 µM
Ratio (HepG2 [7]): 0.13
Ratio (HepG2 [8]): 0.12
Ratio (HepG2 [9]): 0.4
IC50 (HepG2 [1]): 31 µM
Ratio (HepG2 [2]): 0.137
Ratio (HepG2 [3]): 0.128
Ratio (HepG2 [4]): 0.434
Ratio (HepG2 [5]): 0.593
Ratio (HepG2 [10]): 0.21

N#CC1=C(N)Oc2nc(Nc3ccc(S(N)(=O)=O)cc3)sc2C1c1ccc([N+](=O)[O-])cc1 (stereo not drawn)
IC50 (HepG2 [1]): 60 µM
Ratio (HepG2 [2]): 0.312
Ratio (HepG2 [3]): 0.376
Ratio (HepG2 [4]): 0.767
Ratio (HepG2 [5]): 0.846

Nc1nc(=S)[nH]c2c1C(c1ccc([N+](=O)[O-])cc1)c1sc(Nc3ccc(S(N)(=O)=O)cc3)nc1O2 (stereo not drawn)
IC50 (HepG2 [1]): 39 µM
Ratio (HepG2 [2]): 0.246
Ratio (HepG2 [3]): 0.284
Ratio (HepG2 [4]): 0.432
Ratio (HepG2 [5]): 0.615
